Measurements reported in patent US20110190351A1, “Benzoimidazole Derivatives and Glycogen Synthase Kinase-3 Beta Inhibitors Containing the Same” (Oncotherapy Science, Inc., priority 2008, published 2011).

Target: T1, GSK3beta (Homo sapiens, UniProt P49841)
T1 construct: purchased Invitrogen
Assay: Z'-LYTE kinase assay (FRET, SER/THR 9 peptide)
Format: biochemical
Conditions: 0.04 ng/mcl GSKbeta (Invitrogen), 2 mcM SER/THR 9 peptide, 15 mcM ATP, 1 hour at room temperature, 1% DMSO
Description: GSK3beta activity was measured in the presence or absence of compounds using Z′-LYTE kinase assay (Rodems S M, et al., Assay Drug Dev Technol. 1: 9-19, 2002.) kit with SER/THR 9 peptide (Invitrogen) following the manufacturer's instruction. The Z′-LYTE kinase assay kit employs a fluorescence resonance energy transfer (FRET) between two fluorophores, coumarin and fluorescein, attached to each end of a substrate peptide.
Test compounds were dissolved in DMSO at 12.5 mM and then serially diluted as the DMSO concentration in the assays to be 1%. The serially diluted compounds, 0.04 ng/mcl GSKbeta (Invitrogen) and 2 mcM SER/THR 9 peptide were reacted in a reaction buffer (50 mM HEPES pH 7.5, 0.01% Brij-35, 10 mM MgCl2, 1 mM EGTA, 15 mcM ATP). For 0% phosphorylation control, ATP was omitted from the reaction mixture. For 100% phosphorylation control, SER/THR 9 phosphopeptide was used in place of the SER/THR 9 peptide. Following 1 hour incubation at room temperature, the reaction was stopped by the addition of half assay volume of development solution and further incubated for 1 hour at room temperature. After adding the half assay volume of stop reagent, emission signals of coumarin and fluorescein were measured by Wallac EnVision 2103 multilabel reader (PerkinElmer). The extent of phosphorylation was determined according to the 0% and 100% phosphorylation control samples using the following equation:
C100%=coumarin emission signal of the 100% phosphorylation control C0%=coumarin emission signal of the 0% phosphorylation control F100%=fluorescein emission signal of the 100% phosphorylation control F0%=fluorescein emission signal of the 0% phosphorylation control
IC50 values were calculated by nonlinear four parameter fit using SigmaPlot, version 10.0 (Systat Software, Inc.).

T1 sequence (P49841 whole entry): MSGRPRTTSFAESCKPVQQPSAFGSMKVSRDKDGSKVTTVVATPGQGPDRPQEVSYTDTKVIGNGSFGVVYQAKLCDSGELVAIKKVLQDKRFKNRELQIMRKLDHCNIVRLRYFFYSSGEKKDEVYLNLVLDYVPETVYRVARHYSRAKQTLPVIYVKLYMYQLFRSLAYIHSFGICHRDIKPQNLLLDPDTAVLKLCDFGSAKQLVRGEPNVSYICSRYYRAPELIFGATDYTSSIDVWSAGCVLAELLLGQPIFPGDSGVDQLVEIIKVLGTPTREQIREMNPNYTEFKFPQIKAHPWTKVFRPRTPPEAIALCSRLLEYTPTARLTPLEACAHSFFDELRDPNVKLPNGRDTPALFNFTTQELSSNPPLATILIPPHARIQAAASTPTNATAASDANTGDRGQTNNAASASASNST

Row | SMILES | IC50
1 | O=C(NCCNc1ccccn1)c1ccc(O)c2[nH]c(-c3cccs3)nc12 [Example 11, 7-Hydroxy-N-[2-(pyridin-2-ylamino)ethyl]-2-(thiophen-2-yl)-1H-benzo[d]imidazole-4-carboxamide] | 130 nM
2 | O=C(NCCNS(=O)(=O)c1ccncc1)c1ccc(O)c2[nH]c(-c3cccs3)nc12 [Example 40, 7-Hydroxy-N-[2-(pyridine-4-sulfonamido)ethyl]-2-(thiophen-2-yl)-1H-benzo[d]imidazole-4-carboxamide] | 390 nM
3 | NC(=O)c1ccc(OCCNC(=O)c2ccc(O)c3[nH]c(-c4cccs4)nc23)nc1 [Example 49, N-[2-(5-Carbamoylpyridin-2-yloxy)ethyl]-7-hydroxy-2-(thiophen-2-yl)-1H-benzo[d]imidazole-4-carboxamide] | 73 nM
4 | COC(=O)C(CO)NC(=O)c1ccc(O)c2[nH]c(-c3cccs3)nc12 (stereo not drawn) [Example 15, Methyl 3-Hydroxy-2-[7-hydroxy-2-(thiophen-2-yl)-1H-benzo[d]imidazole-4-carboxamido]propanoate] | 22 nM
5 | O=C(NCCCNCCO)c1ccc(O)c2[nH]c(-c3cccs3)nc12 [Example 12, 7-Hydroxy-N-[3-(2-hydroxyethylamino)propyl]-2-(thiophen-2-yl)-1H-benzo[d]imidazole-4-carboxamide] | 180 nM
6 | CS(=O)(=O)Nc1ccc(NCCNC(=O)c2ccc(O)c3[nH]c(-c4cccs4)nc23)nc1 [Example 69, 7-Hydroxy-N-{2-[5-(methylsulfonamido)pyridin-2-ylamino]ethyl}-2-(thiophen-2-yl)-1H-benzo[d]imidazole-4-carboxamide] | 22 nM
7 | CC(C)NCCCNC(=O)c1ccc(O)c2[nH]c(-c3cccs3)nc12 [Example 43, N-[3-(Isopropylamino)propyl]-7-hydroxy-2-(thiophen-2-yl)-1H-benzo[d]imidazole-4-carboxamide] | 220 nM
8 | CC(=O)NCCNC(=O)c1ccc(O)c2[nH]c(-c3cccs3)nc12 [Example 42, N-(2-Acetamidoethyl)-7-hydroxy-2-(thiophen-2-yl)-1H-benzo[d]imidazole-4-carboxamide] | 74 nM
9 | Cn1cncc1CCNC(=O)c1ccc(O)c2[nH]c(-c3cccs3)nc12 [Example 35, 7-Hydroxy-N-[2-(1-methyl-1H-imidazol-5-yl)ethyl]-2-(thiophen-2-yl)-1H-benzo[d]imidazole-4-carboxamide] | 130 nM
10 | NS(=O)(=O)c1ccc(CNC(=O)c2ccc(O)c3[nH]c(-c4cccs4)nc23)cc1 [Example 8, 7-Hydroxy-N-(4-sulfamoylbenzyl)-2-(thiophen-2-yl)-1H-benzo[d]imidazole-4-carboxamide] | 52 nM
11 | CN(C)CCNC(=O)c1ccc(O)c2[nH]c(-c3cccs3)nc12 [Example 36, N-[2-(dimethylamino)ethyl]-7-hydroxy-2-(thiophen-2-yl)-1H-benzo[d]imidazole-4-carboxamide] | 180 nM
12 | NS(=O)(=O)c1ccc(CCNC(=O)c2ccc(O)c3[nH]c(-c4cccs4)nc23)cc1 [Example 21, 7-Hydroxy-N-(4-sulfamoylphenethyl)-2-(thiophen-2-yl)-1H-benzo[d]imidazole-4-carboxamide] | 280 nM
13 | O=C(NCCc1ncc[nH]1)c1ccc(O)c2[nH]c(-c3cccs3)nc12 [Example 62, N-[2-(1H-Imidazol-2-yl)ethyl]-7-hydroxy-2-(thiophen-2-yl)-1H-benzo[d]imidazole-4-carboxamide] | 260 nM
14 | O=C(NCc1ccc(O)c(O)c1)c1ccc(O)c2[nH]c(-c3cccs3)nc12 [Example 37, N-(3,4-Dihydroxybenzyl)-7-hydroxy-2-(thiophen-2-yl)-1H-benzo[d]imidazole-4-carboxamide] | 38 nM
15 | O=C(N[C@@H](CO)Cc1c[nH]cn1)c1ccc(O)c2[nH]c(-c3cccs3)nc12 [Example 17, (R)-7-Hydroxy-N-[1-hydroxy-3-(1H-imidazol-4-yl)propan-2-yl]-2-(thiophen-2-yl)-1H-benzo[d]imidazole-4-carboxamide] | 170 nM

Now from value to molecule:

Row | IC50 | SMILES
16 | 19 nM | O=C(NCCc1ccc(O)c(O)c1)c1ccc(O)c2[nH]c(-c3ccco3)nc12 [Example 80, N-(3,4-Dihydroxyphenethyl)-2-(furan-2-yl)-7-hydroxy-1H-benzo[d]imidazole-4-carboxamide]
17 | 81 nM | CC(=O)Nc1ccc(NCCNC(=O)c2ccc(O)c3[nH]c(-c4cccs4)nc23)nc1 [Example 70, N-[2-(5-Acetamidopyridin-2-ylamino)ethyl]-7-hydroxy-2-(thiophen-2-yl)-1H-benzo[d]imidazole-4-carboxamide]
18 | 8100 nM | O=C(Nc1cc(O)ccc1C(=O)NC1CCCNC1)c1cccs1 (stereo not drawn) [Example 122, N-(5-hydroxy-2-(piperidin-3-ylcarbamoyl)phenyl)thiophene-2-carboxamide]
19 | 1700 nM | O=C(CCc1cnc[nH]1)Nc1ccc(O)c2[nH]c(-c3cccs3)nc12 [Example 121, N-(7-hydroxy-2-(thiophen-2-yl)-1H-benzo[d]imidazol-4-yl)-3-(1H-imidazol-5-yl)propanamide]
20 | 150 nM | O=C(NCC(O)CO)c1ccc(O)c2nc(C3CC3)[nH]c12 (stereo not drawn) [Example 97, 2-Cyclopropyl-N-(2,3-dihydroxypropyl)-4-hydroxy-1H-benzo[d]imidazole-7-carboxamide]
21 | 400 nM | O=C(Nc1ccc(O)cc1)c1ccc(O)c2[nH]c(C3CC3)nc12 [Example 91]
22 | 1.7 nM | O=C(NCCCn1ccnc1)c1ccc(O)c2[nH]c(-c3cccs3)nc12 [Example 76, N-[3-(1H-Imidazol-1-yl)propyl]-7-hydroxy-2-(thiophen-2-yl)-1H-benzo[d]imidazole-4-carboxamide]
23 | 340 nM | O=C(N[C@@H](Cc1cnc[nH]1)C(=O)O)c1ccc(O)c2[nH]c(-c3cccs3)nc12 [Example 71, (S)-2-[7-Hydroxy-2-(thiophen-2-yl)-1H-benzo[d]imidazole-4-carboxamido]-3-(1H-imidazol-5-yl)propanoic Acid]
24 | 400 nM | Nc1ccc(CCNC(=O)c2ccc(O)c3nc(-c4ccccc4)[nH]c23)cc1 [Example 93, N-(4-Aminophenethyl)-4-hydroxy-2-phenyl-1H-benzo[d]imidazole-7-carboxamide]
25 | 30 nM | O=C(NCCCC1C=NNC1=O)c1ccc(O)c2[nH]c(-c3ccco3)nc12 (stereo not drawn) [Example 79]
26 | 120 nM | NS(=O)(=O)c1ccc(CCNC(=O)c2ccc(O)c3nc(C4CC4)[nH]c23)cc1 [Example 101, 2-Cyclopropyl-4-hydroxy-N-(4-sulfamoylphenethyl)-1H-benzo[d]imidazole-7-carboxamide]
27 | 3000 nM | O=C(/C=C/c1cnc[nH]1)Nc1ccc(O)c2[nH]c(-c3cccs3)nc12 [Example 120]
